Results as given in US20260250320A1, “LIPIDATED PEPTIDE INHIBITORS OF INTERLEUKIN-23 RECEPTOR” (Janssen Pharmaceutica NV, priority 2023, published 2026).
*1 amine or outer side, *2 acyl side, *3 side chain or, on linkers, in order; H or OH if unused. Where a SMILES comes first, the peptide text is derived from it. Bridges are numbered along the chain shown (N, C = ends). Side-chain parts run from the residue outwards. [ ]: non-standard residue; d: D form. The star is where a group is joined. ξ: configuration not given here. X29 = C[C@H](CCCCNC(=O)COCCOCCNC(=O)COCCOCCNC(=O)CC[C@H](NC(=O)CCCCCCCCCCCCCCCCC(=O)O)C(=O)O)C(=O)C[C@H](C(=O)[*:1])C(C)(C)S[*:2]; Me3N+CH2CH2(OCH2CH2)4CO = C[N+](C)(C)CCOCCOCCOCCOCCC(=O)*; X28 = CC(=O)[C@H](CCC(=O)*)NC(=O)CCCCCCCCCCCCCCCCC(=O)O; CH2CH2OCH2CH2OCH2CH2NMe3+ = C[N+](C)(C)CCOCCOCC*; Trp(7-Me) = Cc1cccc2c(C[C@H](N)C(=O)O)c[nH]c12; C18 diacid = O=C(O)CCCCCCCCCCCCCCCCC(=O)*; X6 = CN(CC[C@H](N[*:1])C(=O)[*:2])[*:3]; γGlu = O=C(O)[C@H](CCC(=O)[*:2])N[*:1]; 2Nal = N[C@@H](Cc1ccc2ccccc2c1)C(=O)O; AEF = NCCOc1ccc(C[C@H](N)C(=O)O)cc1; PEG6 = NCCOCCOCCOCCOCCOCCOCCC(=O)O; X2 = C[N+](C)(C)C[C@@H](CC(=O)O)N*; ξAEF = NCCOc1ccc(CC(N)C(=O)O)cc1; 3Pal = N[C@@H](Cc1cccnc1)C(=O)O; Lys(Me) = CNCCCC[C@H](N)C(=O)O; NMeK = CN[C@@H](CCCCN)C(=O)O; Pen = CC(C)(S)[C@H](N)C(=O)O; Suc = O=C(CCC(=O)[*:2])[*:1]; Thp = NC1(C(=O)O)CCOCC1; AEEA = NCCOCCOCC(=O)O; Sar = CNCC(=O)O

Tests used:
[1] = system: IL-23-stimulated phosphorylated STAT3 in peripheral blood mononuclear cells (PBMCs); assay: PBMC pSTAT3 Assay; type: cell-based; details: PBMCs from healthy donors; 30 min preincubation with peptide; IL-23 5 ng/mL for 30 min; phospho-STAT3 by MSD
In short: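 Phospho-STAT3 quantified by Meso Scale assay in lysates of PBMCs exposed to IL-23 (5 ng/mL, 30 min, 37 °C) after 30 min peptide pretreatment. Cells were cryopreserved donor PBMCs activated 4 days with anti-CD3 plus IL-1β (100 ng/mL) and starved ~4 h; IC50 reported.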

IL-23R = biological target: T1, IL-23R (Homo sapiens, UniProt Q5VWK5); assay: IL23R Reporter Assay; type: cell-based; details: HEK293 cells containing IL-23R, IL-12Rβ1 and STAT-inducible firefly luciferase reporter; 10 ng/mL IL-23 (EC90); 5 h
T1 construct: HEK293 cells containing IL-23R, IL-12Rβ1 and a firefly luciferase reporter gene driven by a STAT-inducible promoter (Promega); host or cells: HEK293
T1 sequence (Q5VWK5 24-629): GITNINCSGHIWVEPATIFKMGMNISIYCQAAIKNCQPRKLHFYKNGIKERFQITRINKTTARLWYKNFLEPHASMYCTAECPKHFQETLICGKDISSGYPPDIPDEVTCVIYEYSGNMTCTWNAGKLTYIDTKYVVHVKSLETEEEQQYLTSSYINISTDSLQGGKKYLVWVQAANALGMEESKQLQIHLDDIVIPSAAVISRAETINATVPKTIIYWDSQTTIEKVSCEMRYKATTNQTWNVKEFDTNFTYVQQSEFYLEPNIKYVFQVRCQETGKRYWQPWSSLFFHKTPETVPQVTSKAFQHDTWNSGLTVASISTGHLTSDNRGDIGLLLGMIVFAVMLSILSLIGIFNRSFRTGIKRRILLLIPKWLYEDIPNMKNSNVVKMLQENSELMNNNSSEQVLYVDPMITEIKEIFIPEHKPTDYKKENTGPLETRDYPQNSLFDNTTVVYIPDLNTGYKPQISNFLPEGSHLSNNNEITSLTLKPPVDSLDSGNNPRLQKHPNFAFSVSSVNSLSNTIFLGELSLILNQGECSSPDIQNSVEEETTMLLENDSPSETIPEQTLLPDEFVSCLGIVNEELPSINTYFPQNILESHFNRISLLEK
In short: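 IC50 values were fitted with a 4-parameter Hill equation to luciferase signal, scaled between IL-23-only wells (0% inhibition) and 30 μM reference inhibitor (100%). The readout was a STAT-inducible reporter in IL-23R/IL-12Rβ1 HEK293 cells, stimulated with added 10 ng/mL IL-23 (EC90) for 5 h at 37° C and developed with BioGlo.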

Compound | IC50 [1] | IC50 (IL-23R)
CC(=O)NCCCC[C@@H]1NC(=O)[C@H](Cc2c[nH]c3c(C)cccc23)NC(=O)[C@H]([C@@H](C)O)NC(=O)[C@H](CC(N)=O)NC(=O)[C@@H](NC(=O)[C@@H](CCCCNC(=O)COCCOCCNC(=O)COCCOCCNC(=O)CC[C@H](NC(=O)CCCCCCCCCCCCCCCCC(=O)O)C(=O)O)NC(C)=O)C(C)(C)SSC(C)(C)[C@@H](C(=O)N[C@@H](Cc2ccc(OCCN)cc2)C(=O)N[C@@H](Cc2ccc3ccccc3c2)C(=O)NC2(C(=O)N[C@@H](CCCCNC(=O)CCC(=O)N[C@H](CC(=O)O)C[N+](C)(C)C)C(=O)N[C@@H](CC(N)=O)C(=O)N[C@@H](Cc3cccnc3)C(=O)N(C)CC(N)=O)CCOCC2)NC1=O [compound 33, MeCO-k(PEG2PEG2gEC18OH)-Pen(3)-N-T-7MeW-K(Ac)-Pen(3)-AEF-2Nal-THP-K(d)-N-3Pya-Sar-CONH2] (Ac-[dK]([AEEA-AEEA-γGlu-C18 diacid])[Pen]NT[Trp(7-Me)]K(Ac)[Pen][AEF][2Nal][Thp]K([Suc-X2])N[3Pal][Sar]-NH2; disulfide 2-7) | < 0.5 nM | < 50 nM
Cc1cccc2c(C[C@@H]3NC(=O)[C@H]([C@@H](C)O)NC(=O)[C@H](CC(N)=O)NC(=O)[C@@H](NC(=O)[C@@H](CCCNC(=N)N)NC(=O)COCCOCCNC(=O)COCCOCCNC(=O)CC[C@H](NC(=O)CCCCCCCCCCCCCCCCC(=O)O)C(=O)O)C(C)(C)SSC(C)(C)[C@@H](C(=O)N[C@@H](Cc4ccc(OCCN)cc4)C(=O)N[C@@H](Cc4ccc5ccccc5c4)C(=O)NC4(C(=O)N[C@@H](CCC(=O)O)C(=O)N[C@@H](CC(N)=O)C(=O)N[C@@H](Cc5cccnc5)C(=O)N(C)CC(N)=O)CCOCC4)NC(=O)[C@H](CCCCNC(=O)CCC(=O)N[C@H](CC(=O)O)C[N+](C)(C)C)NC3=O)c[nH]c12 [compound 46, HOC18gEPEG2PEG2CO-r-Pen(3)-N-T-7MeW-K(d)-Pen(3)-AEF-2Nal-THP-E-N-3Pya-Sar-CONH2] ({C18 diacid-γGlu-AEEA-AEEA}-[dR][Pen]NT[Trp(7-Me)]K([Suc-X2])[Pen][AEF][2Nal][Thp]EN[3Pal][Sar]-NH2; disulfide 2-7) | < 0.5 nM | < 50 nM
CC(=O)[C@H](CCC(=O)NCCOCCOCCOCCOCCOCCOCCC(=O)NCCCC[C@@H](C(N)=O)N(C)C(=O)[C@H](Cc1cccnc1)NC(=O)[C@H](CC(N)=O)NC(=O)[C@H](CCC(=O)O)NC(=O)C1(NC(=O)[C@H](Cc2ccc3ccccc3c2)NC(=O)C(Cc2ccc(OCCN)cc2)NC(=O)[C@H]2NC(=O)[C@H](CCN(C)C(=O)CCOCCOCCOCCOCC[N+](C)(C)C)NC(=O)[C@H](Cc3c[nH]c4c(C)cccc34)NC(=O)[C@H]([C@@H](C)O)NC(=O)[C@H](CC(=O)N(C)C)NC(=O)[C@@H](NC(=O)CCOCCOCCOCCOCC[N+](C)(C)C)C(C)(C)SSC2(C)C)CCOCC1)NC(=O)CCCCCCCCCCCCCCCCC(=O)O (stereo partly drawn) [compound 91, HOC18gEPEG2PEG2COSP6-Pen(3)-N(N(Me)2)-T-7MeW-K(NMeAc)-Pen(3)-APEG3F-2Nal-THP-K(NMeAc)-N-3Pya-Sar-CON(Me)2] ({Me3N+CH2CH2(OCH2CH2)4CO}-[Pen]D(NMe2)T[Trp(7-Me)][X6](Me3N+CH2CH2(OCH2CH2)4CO)[Pen][ξAEF][2Nal][Thp]EN[3Pal][NMeK]([PEG6-X28])-NH2; disulfide 1-6) | < 0.5 nM | < 50 nM
CC(=O)N(C)CCCC[C@@H]1NC(=O)[C@H](Cc2c[nH]c3c(C)cccc23)NC(=O)[C@H]([C@@H](C)O)NC(=O)[C@H](CC(=O)N(C)C)NC(=O)[C@@H](CC(=O)[C@H](C)CCCCNC(=O)COCCOCCNC(=O)COCCOCCNC(=O)CC[C@H](NC(=O)CCCCCCCCCCCCCCCCC(=O)O)C(=O)O)C(C)(C)SSC(C)(C)[C@@H](C(=O)N[C@@H](Cc2ccc(OCCOCCOCC[N+](C)(C)C)cc2)C(=O)N[C@@H](Cc2ccc3ccccc3c2)C(=O)NC2(C(=O)N[C@@H](CCCCN(C)C(C)=O)C(=O)N[C@@H](CC(N)=O)C(=O)N[C@@H](Cc3cccnc3)C(=O)N(C)CC(=O)N(C)C)CCOCC2)NC1=O [compound 159, cPEG3aCO-k(PEG2PEG2gEC18OH)-Pen(3)-N(N(Me)2)-T-7MeW-K(NMeAc)-Pen(3)-APEG3F-2Nal-THP-K(NMeAc)-N-3Pya-Sar-CON(Me)2] (D(NMe2)T[Trp(7-Me)][Lys(Me)](Ac)[Pen]Y(CH2CH2OCH2CH2OCH2CH2NMe3+)[2Nal][Thp][Lys(Me)](Ac)N[3Pal][Sar]-NMe2; linker N-5 via X29) | < 0.5 nM | < 50 nM
